# From US9468670B2, “Melatonin-based treatment and diagnosis of bile duct disease” (Texas A&M University System, priority 2011, dated 2016)
# Tests used:
# [1] = tested on: large cholangiocytes; experiment: Bile duct mass, PCNA-positive cholangiocytes and apoptosis (TUNEL) in liver sections; assay type: in vivo, rat
# Description: Male 344 Fischer rats (150-175 g) were purchased from Charles River (Wilmington, Mass.) and kept in a temperature-controlled environment (22° C.) with 12:12 hr light/dark cycles. Animals were fed ad libitum and had free access to food and drinking water. […] Before each surgical procedure, animals were anesthetized with sodium pentobarbital (50 mg/kg BW, IP). All animal experiments were performed in accordance with a protocol approved by the Scott and White and Texas A&M Health Science Center Institutional Animal Care and Use Committee and conform to the Guide for the Care and Use of Laboratory Animals published by the US National Institutes of Health (NIH Publication No. 85-23, revised 1996). In all animals, wet liver weight, body weight, wet liver weight to body weight ratio, and an index of liver cell growth including cholangiocytes were measured ([…] et al., 1988). The following was also evaluated in paraffin-embedded liver sections ([…]): (i) lobular necrosis; (ii) the intrahepatic bile duct mass (IBDM) of large (>[…]) ([…] et al., 1997; Glaser et al., 2009) cholangiocytes, the only biliary cell types proliferating following […] et al., 1998; Glaser et al., 2009) and (iii) the percentage of cholangiocyte apoptosis by semiquantitative terminal deoxynucleotidyltransferase biotin-dUTP nick-end labeling (TUNEL) kit (Apoptag; Chemicon International, Inc.) (Glaser et al., 2010). Lobular necrosis was measured in liver sections stained for hematoxylin and eosin (Glaser et al., 2010). […] The IBDM was measured as area occupied by CK-19 positive-bile duct/total area×100 (Glaser et al., 2010). It was also evaluated by H&E of sections if melatonin administration induces the damage of kidney, heart, stomach, spleen and small and large intestine of normal and BDL rats. The sections from the selected were evaluated in a blinded-fashion by two board-certified pathologists by a BX-51 light microscope (Olympus, Tokyo, Japan) equipped with a camera.
# [2] = tested on: large cholangiocytes; experiment: Secretin-stimulated cAMP levels (RIA) in purified large cholangiocytes from treated BDL rats; assay type: in vivo, rat; details: cholangiocytes from BDL rats treated with melatonin for 1 week; secretin 100 nM, 5 minutes
# Description: The effect of secretin on cAMP levels was evaluated in purified large cholangiocytes and bile and bicarbonate secretion was evaluated in bile fistula rats, two functional indices of cholangiocyte hyperplasia (Alpini et al., 1998; Alpini et al., 1988; LeSage et al., 1999). Following purification, large cholangiocytes (1×10^5 cells) were incubated for 1 hour at 37° C. (Ishii et al., 1989) before stimulation with 0.2% bovine serum albumin (BSA) or secretin (100 nM) for 5 minutes at room temperature (Kato et al., 1992; LeSage et al., 1999; LeSage et al., 2004) before evaluation of cAMP levels by RIA (Alpini et al., 1998; Kato et al., 1992; LeSage et al., 1999; LeSage et al., 2004). For the studies of biliary physiology, after anesthesia, rats were surgically prepared for bile collection as described by us (Alpini et al., 1988). When steady-state bile flow was reached (60-70 minutes from the intravenous infusion of Krebs-Ringer-Henseleit solution, KRH), the animals were infused with secretin (100 nM) (LeSage et al., 1999; LeSage et al., 2004) for 30 minutes followed by IV infusion of KRH for 30 minutes (LeSage et al., 1999; LeSage et al., 2004). Bicarbonate concentration in bile was determined by an ABL™ 520 Blood Gas System (Radiometer Medical A/S, Copenhagen, Denmark).
# [3] = tested on: large cholangiocyte lines; experiment: PCNA expression and PKA, ERK1/2 phosphorylation (immunoblots) in immortalized large cholangiocytes; assay type: cell-based, mouse; details: melatonin 10^−11 M, 48 hours
# From the text: The expression of MT1 and MT2 receptors in immortalized large cholangiocytes was first evaluated by immunofluorescence (Francis et al., 2008). Images were visualized using an Olympus IX-71 confocal microscope. For all immunoreactions, negative controls (with normal serum from the same species substituted for the primary antibody) were included. It was next evaluated by commercially available radioimmunoassay (RIA) kits ([…] et al., 1998; Kato et al., 1992; […] et al., 1999; […] et al., 2004) for cAMP levels ([…] et al., 1998; Kato et al., 1992; […] Shiu et al., 2010). […] […] et al., 1992; Ramirez-Rodriguez et al., 2009; […], 1999). […] Shiu et al., 2010) before evaluating by immunoblots (Francis et al., 2008) the expression of PCNA and the phosphorylation of PKA and EKR1/2.
# [4] = tested on: CCA; experiment: Sensitization of CCA to 5-fluorouracil and gemcitabine cytotoxicity in vitro; assay type: cell-based
# [5] = tested on: cholangiocytes; experiment: Biliary proliferation (PCNA, IBDM) and apoptosis (TUNEL) in Morpholino-treated rats; assay type: in vivo, rat; details: normal rats, 1 mg/Kg BW/day for 1 week via portal vein catheter
# Description: In separate experiments, normal rats treated with Vivo-Morpholino sequences of AANAT (5′-[…] (SEQ ID NO:1), to reduce the biliary expression of AANAT) or Morpholino mismatched (5′-[…] (SEQ ID NO:2)) (Gene Tools LCC) (1 mg/Kg BW/day) for 1 week via an implanted portal vein catheter. Serum, liver tissue, cholangiocytes, kidney, spleen, small intestine, stomach and heart were collected. Since our goal was to knock-down AANAT expression in the liver without inhibiting AANAT expression in other organs, we used a lower dose (1 mg/Kg/day) of Vivo-Morpholino than that described in the original study (3.0 mg/kg/day (Arora et al., 2002). This approach minimizes the amount of Vivo-Morpholino that circulates outside of the liver after slow infusion into the portal vein. See below for the surgical procedure for the implantation of the portal vein catheter by which AANAT Vivo-Morpholino or Morpholino mismatched was administered.
# Biliary proliferation was determined by measurement of the percentage of PCNA-positive cholangiocytes by immunohistochemistry, and intrahepatic bile duct mass (IBDM) by immunohistochemistry for CK-19 (Mancinelli et al., 2010). Biliary apoptosis was evaluated by semiquantitative terminal deoxynucleotidyltransferase biotin-dUTP nick-end labeling (TUNEL) kit (Chemicon International, Inc., Temecula, Calif.) (Mancinelli et al., 2010). IBDM was determined as the area occupied by CK-19 positive-bile duct/total area×100 (Mancinelli et al., 2010). The morphological changes/damage in liver, spleen, kidney, heart, stomach, and small intestine were evaluated from AANAT Vivo-Morpholino- or mismatch-treated rats by H&E staining. The serum levels of the transaminases, glutamate pyruvate transaminases (SGPT) and glutamic oxaloacetic transaminase (SGOT), alkaline phosphatase (ALP) and total bilirubin were evaluated using a Dimension RxL Max Integrated Chemistry system (Dade Behring Inc., Deerfield Ill.), Chemistry Department, Scott & White.
# [6] = BDL rats vs. corresponding control rats
Molecule,Cholangiocyte apoptosis ([1]; BDL rats),"Large BDM (bile duct mass) [1, 6]","Percentage of PCNA-positive large cholangiocytes [1, 6]","Effects on bile duct mass, PCNA-positive cholangiocytes and apoptosis ([1]; normal rats)",Effect of secretin on cAMP levels of large cholangiocytes [2],PCNA expression and phosphorylation of PKA and ERK2 (but not ERK1) [3],Sensitization of CCA to the cytotoxic effects of 5-fluorouracil (5-FU) [4] [fold],Sensitization of CCA to the cytotoxic effects of gemcitabine [4] [fold],% IBDM [5] [%],% PCNA-positive cholangiocytes [5] [%],% apoptotic cholangiocytes [5] [%]
COc1ccc2[nH]cc(CCNC(C)=O)c2c1 [melatonin],enhanced,decreased,decreased,no effects,did not enhance,decreased,~2,~2,–,–,–
"AANAT Vivo-Morpholino: Vivo-Morpholino sequence of AANAT 5′-GTTCCCCAGCTTTGGAAGTGGTCCC (SEQ ID NO:1), to reduce the biliary expression of AANAT (all phosphorodiamidate morpholino (PMO); Vivo-Morpholino delivery moiety attached, position not given here, further chemistry not fully specified)",–,–,–,–,–,–,–,–,0.45 ± 0.10,8.98 ± 0.6,<5
